# From ChEMBL document CHEMBL4130448, “Novel SERMs based on 3-aryl-4-aryloxy-2H-chromen-2-one skeleton - A possible way to dual ERα/VEGFR-2 ligands for treatment of breast cancer” (Eur J Med Chem, 2017)
# Active and inactive are the calls of the source. The rule behind the calls is not given here.
# Legend:
# [1] = biological target: T1, Estrogen receptor (Homo sapiens, UniProt P03372); test: Displacement of fluorescent estrogen ligand from recombinant human ERalpha expressed in insect cells incubated for 2 hrs by polarization
# T1 sequence (P03372 whole entry): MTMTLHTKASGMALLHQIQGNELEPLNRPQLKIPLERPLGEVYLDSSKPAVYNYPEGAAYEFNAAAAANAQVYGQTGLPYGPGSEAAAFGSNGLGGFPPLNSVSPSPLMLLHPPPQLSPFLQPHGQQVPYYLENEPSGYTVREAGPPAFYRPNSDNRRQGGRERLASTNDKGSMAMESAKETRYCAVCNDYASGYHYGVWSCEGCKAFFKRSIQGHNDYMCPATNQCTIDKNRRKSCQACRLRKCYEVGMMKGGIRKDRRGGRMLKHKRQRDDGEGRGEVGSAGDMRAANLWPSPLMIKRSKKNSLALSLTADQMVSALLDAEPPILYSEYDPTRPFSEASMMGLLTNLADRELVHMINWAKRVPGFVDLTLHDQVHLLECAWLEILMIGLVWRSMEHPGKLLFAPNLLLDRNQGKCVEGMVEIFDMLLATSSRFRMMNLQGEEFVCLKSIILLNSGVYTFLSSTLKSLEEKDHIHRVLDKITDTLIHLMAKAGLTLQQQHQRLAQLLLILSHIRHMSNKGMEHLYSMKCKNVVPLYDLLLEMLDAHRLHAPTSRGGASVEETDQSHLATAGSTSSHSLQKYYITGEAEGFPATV
# [2] = system: Ishikawa; test: cells; settings: Homo sapiens, 48 h
# Description: Cytotoxicity in human Ishikawa cells assessed as inhibition of cell growth incubated for 48 hrs by MTT assay
# [3] = system: MCF7; test: cells; settings: Homo sapiens, MCF7, 48 h
# Description: Cytotoxicity in human MCF7 cells assessed as inhibition of cell growth incubated for 48 hrs by MTT assay
# [4] = system: HUVEC; test: Antiangiogenic activity against HUVEC incubated for 48 hrs by MTT assay; format: functional, cell-based; settings: Homo sapiens
# [5] = biological target: Vascular endothelial growth factor receptor 2 (Homo sapiens) (UniProt P35968); test: Inhibition of His-tagged human VEGFR2 at 40 uM incubated for 1 hr by HTRF assay
# [6] = system: MCF7; test: Induction of cell cycle arrest in human MCF7 cells assessed as accumulation at G0/G1 phase at 4 uM incubated for 24 hrs by propidium iodide staining flow cytometry (reference value: 48.52%); format: functional
# [7] = system: MCF7; test: Induction of cell cycle arrest in human MCF7 cells assessed as accumulation at G0/G1 phase at 6 uM incubated for 24 hrs by propidium iodide staining flow cytometry (reference value: 48.52%); format: functional
# [8] = system: MCF7; test: Induction of cell cycle arrest in human MCF7 cells assessed as accumulation at G0/G1 phase incubated for 24 hrs by propidium iodide staining flow cytometry; format: functional, cell-based
# [9] = system: MCF7; test: Effect on total Raf1 protein level in human MCF7 cells at 2 to 4 uM incubated for 24 hrs by Western blot method; format: ADME, cell-based; settings: mcf7, 24 h
# [10] = system: MCF7; test: Induction of cell cycle arrest in human MCF7 cells assessed as reduction in accumulation at G2/M phase incubated for 24 hrs by propidium iodide staining flow cytometry; format: functional, cell-based
# [11] = system: MCF7; test: Induction of cell cycle arrest in human MCF7 cells assessed as accumulation at G2/M phase at 6 uM incubated for 24 hrs by propidium iodide staining flow cytometry (reference value: 26.84%); format: functional
# [12] = biological target: Vascular endothelial growth factor receptor 2 (Homo sapiens) (UniProt P35968); test: Inhibition of VEGFR2 in human MCF7 cells assessed as reduction in p-Raf1 protein level incubated for 24 hrs by Western blot method; format: cell-based
# [13] = biological target: Vascular endothelial growth factor receptor 2 (Homo sapiens) (UniProt P35968); test: Inhibition of VEGFR2 phosphorylation in human MCF7 cells incubated for 24 hrs by Western blot method; format: cell-based
# [14] = biological target: Vascular endothelial growth factor receptor 2 (Homo sapiens) (UniProt P35968); test: Inhibition of VEGFR2 phosphorylation in human MCF7 cells at 2 uM incubated for 24 hrs by Western blot method relative to sunitinib; format: cell-based
# [15] = system: MCF7; test: Induction of cell cycle arrest in human MCF7 cells assessed as accumulation at G2/M phase at 4 uM incubated for 24 hrs by propidium iodide staining flow cytometry (reference value: 26.84%); format: functional
# [16] = system: MCF7; test: Induction of cell cycle arrest in human MCF7 cells assessed as accumulation at S phase at 6 uM incubated for 24 hrs by propidium iodide staining flow cytometry (reference value: 24.64%); format: functional
# [17] = system: MCF7; test: Induction of cell cycle arrest in human MCF7 cells assessed as reduction in accumulation at S phase incubated for 24 hrs by propidium iodide staining flow cytometry; format: functional, cell-based
# [18] = system: MCF7; test: Induction of cell cycle arrest in human MCF7 cells assessed as accumulation at G0/G1 phase at 2 uM incubated for 24 hrs by propidium iodide staining flow cytometry (reference value: 48.52%); format: functional
# [19] = system: MCF7; test: Induction of cell cycle arrest in human MCF7 cells assessed as accumulation at S phase at 2 uM incubated for 24 hrs by propidium iodide staining flow cytometry (reference value: 24.64%); format: functional
# [20] = system: MCF7; test: Induction of cell cycle arrest in human MCF7 cells assessed as accumulation at S phase at 4 uM incubated for 24 hrs by propidium iodide staining flow cytometry (reference value: 24.64%); format: functional
# [21] = system: MCF7; test: Induction of cell cycle arrest in human MCF7 cells assessed as accumulation at G2/M phase at 2 uM incubated for 24 hrs by propidium iodide staining flow cytometry (reference value: 26.84%); format: functional
# [22] = biological target: Vascular endothelial growth factor receptor 2 (Homo sapiens) (UniProt P35968); test: Inhibition of VEGFR2 in human MCF7 cells assessed as reduction in p-ERK1/2 protein level incubated for 24 hrs by Western blot method; format: cell-based
# [23] = system: MCF7; test: Effect on total ERK1/2 protein level in human MCF7 cells at 2 to 4 uM incubated for 24 hrs by Western blot method; format: ADME, cell-based; settings: mcf7, 24 h
# Sequence of Vascular endothelial growth factor receptor 2 (Homo sapiens) (P35968 whole entry): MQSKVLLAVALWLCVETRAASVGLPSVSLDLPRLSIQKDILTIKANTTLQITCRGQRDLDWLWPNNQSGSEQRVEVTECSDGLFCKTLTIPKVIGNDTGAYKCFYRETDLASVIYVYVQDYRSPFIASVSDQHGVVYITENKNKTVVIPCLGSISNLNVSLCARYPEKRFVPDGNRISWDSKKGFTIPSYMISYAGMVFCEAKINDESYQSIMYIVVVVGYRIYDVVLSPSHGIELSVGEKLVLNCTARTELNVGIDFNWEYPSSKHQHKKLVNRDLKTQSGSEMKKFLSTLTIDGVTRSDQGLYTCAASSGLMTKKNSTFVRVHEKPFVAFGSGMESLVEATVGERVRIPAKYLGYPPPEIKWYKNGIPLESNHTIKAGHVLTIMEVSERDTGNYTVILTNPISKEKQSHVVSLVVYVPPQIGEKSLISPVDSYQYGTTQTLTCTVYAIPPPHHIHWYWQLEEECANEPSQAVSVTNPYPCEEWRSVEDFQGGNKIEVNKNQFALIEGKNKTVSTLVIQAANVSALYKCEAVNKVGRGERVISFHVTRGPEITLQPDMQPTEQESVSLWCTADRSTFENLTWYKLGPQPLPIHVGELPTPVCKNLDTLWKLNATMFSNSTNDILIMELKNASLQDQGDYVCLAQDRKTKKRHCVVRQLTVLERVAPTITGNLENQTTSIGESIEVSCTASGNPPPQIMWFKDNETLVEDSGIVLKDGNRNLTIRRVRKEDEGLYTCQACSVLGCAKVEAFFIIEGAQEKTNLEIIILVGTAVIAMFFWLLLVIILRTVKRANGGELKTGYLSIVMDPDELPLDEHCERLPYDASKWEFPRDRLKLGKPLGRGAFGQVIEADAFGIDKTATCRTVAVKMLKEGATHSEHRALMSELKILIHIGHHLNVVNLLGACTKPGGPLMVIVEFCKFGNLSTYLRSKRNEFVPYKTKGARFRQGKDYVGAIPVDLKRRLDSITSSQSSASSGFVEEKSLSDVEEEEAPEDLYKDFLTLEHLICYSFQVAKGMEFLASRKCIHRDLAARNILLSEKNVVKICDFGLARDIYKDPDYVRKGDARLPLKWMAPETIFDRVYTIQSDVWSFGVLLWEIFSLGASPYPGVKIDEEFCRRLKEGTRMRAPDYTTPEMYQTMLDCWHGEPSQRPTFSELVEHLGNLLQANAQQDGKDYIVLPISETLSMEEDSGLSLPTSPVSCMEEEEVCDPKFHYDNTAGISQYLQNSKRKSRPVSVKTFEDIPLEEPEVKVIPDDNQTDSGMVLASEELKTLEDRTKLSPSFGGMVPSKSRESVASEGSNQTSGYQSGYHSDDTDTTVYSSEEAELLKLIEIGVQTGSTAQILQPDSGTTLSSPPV
Structure (SMILES),IC50 [1] [µM],IC50 [2] [µM],IC50 [3] [µM],also measured
COc1ccc2c(Nc3ccc(OCCN4CCCC4)cc3)c(-c3ccc(F)cc3)c(=O)oc2c1,> 10,12.5,21.5,
COc1ccc2c(Oc3ccc(OCCN(C)C)cc3)c(-c3ccc(F)cc3)c(=O)oc2c1,8.96,17.3,15.3,
COc1ccc2c(Nc3ccc(OCCN(C)C)cc3)c(-c3ccc(F)cc3)c(=O)oc2c1,> 10,13.5,31.6,
COc1ccc2c(Nc3ccc(OCCN4CCCCC4)cc3)c(-c3ccc(F)cc3)c(=O)oc2c1,7.96,8.71,12.6,IC50 [4]: 9.05 µM; inhibition [5]: 66%
COc1ccc2c(Oc3ccc(OCCN4CCCCC4)cc3)c(-c3ccc(F)cc3)c(=O)oc2c1,6.87,8.41,9.32,IC50 [4]: 13.6 µM; inhibition [5]: 55.1%
O=c1oc2cc(O)ccc2c(Oc2ccc(OCCN3CCCCC3)cc2)c1-c1ccc(F)cc1,2.19,11.1,9.54,Activity [6]: 65.37%; Activity [7]: 75.46%; Activity [8]: Dose-dependent effect; Activity [9]: Non-Toxic; Activity [10]: Dose-dependent effect; Activity [11]: 9.85%; inhibition [12]: Dose-dependent effect; inhibition [13]: Dose-dependent effect; inhibition [14]: Active; Activity [15]: 16.22%; Activity [16]: 14.69%; Activity [17]: Dose-dependent effect; Activity [18]: 60.67%; Activity [19]: 18.52%; Activity [20]: 18.41%; Activity [21]: 20.81%; inhibition [22]: Dose-dependent effect; IC50 [4]: 15.7 µM; inhibition [5]: 82.9%; Activity [23]: Non-Toxic
O=c1oc2cc(O)ccc2c(Nc2ccc(OCCN3CCCCC3)cc2)c1-c1ccc(O)cc1,3.82,24.6,18.7,IC50 [4]: 30.8 µM; inhibition [5]: 83.2%
CN(C)CCOc1ccc(Nc2c(-c3ccc(F)cc3)c(=O)oc3cc(O)ccc23)cc1,6.62,24.8,19.3,
CN(C)CCOc1ccc(Oc2c(-c3ccc(F)cc3)c(=O)oc3cc(O)ccc23)cc1,6.43,18.7,16.6,
O=c1oc2cc(O)ccc2c(Oc2ccc(OCCN3CCCC3)cc2)c1-c1ccc(O)cc1,6.84,24.5,23.9,
COc1ccc(-c2c(Oc3ccc(OCCN4CCCC4)cc3)c3ccc(OC)cc3oc2=O)cc1,> 10,8.53,14.4,
CCN(CC)CCOc1ccc(Oc2c(-c3ccc(F)cc3)c(=O)oc3cc(O)ccc23)cc1,3.55,17.4,21.3,
COc1ccc(-c2c(Oc3ccc(OCCN4CCCCC4)cc3)c3ccc(OC)cc3oc2=O)cc1,9.42,7.47,9.62,IC50 [4]: 7.64 µM; inhibition [5]: 67.6%
O=c1oc2cc(O)ccc2c(Oc2ccc(OCCN3CCCC3)cc2)c1-c1ccc(F)cc1,4.27,22.6,16.8,
CCN(CC)CCOc1ccc(Nc2c(-c3ccc(O)cc3)c(=O)oc3cc(O)ccc23)cc1,5.97,29.1,27.5,
COc1ccc2c(Oc3ccc(OCCN4CCCC4)cc3)c(-c3ccc(F)cc3)c(=O)oc2c1,> 10,15.1,14.6,
O=c1oc2cc(O)ccc2c(Nc2ccc(OCCN3CCCC3)cc2)c1-c1ccc(F)cc1,4.53,21.5,13.9,
